Laboratory results as given in patent US8945853B2, “Detection of intracellular binding events by measuring protein abundance” (DiscoveRx Corporation, priority 2012, dated 2015).
Each block holds one molecule with its values, some of them ahead of it.

What was measured:
CYP 17A-PL fusion = CYP 17A-PL fusion (Homo sapiens, UniProt P05093); assay: CYP17A-PL fusion stabilization in HEK cells (FIG. 11); assay type: cell-based
Description: (§1) HEK cells were transduced with fusion protein expression construct. The cells were then treated with different compounds for 3-6 hrs at 37° C. the fusion proteins were then quantified to analyze the effect of different compounds on the stabilization of fusion proteins.

BRD4 (1)-PL fusion = assay: Bromodomain-PL fusion stability in HEK cells; assay type: cell-based; settings: 6 hrs at 37° C.
Description: To study the effect of compound binding, fusion proteins were prepared using fragments of BRD4 (1) (Accession No. NM_058243), BRD2 (1) (Accession No. NM_005104) and BRDT (1) (Accession No. NM_001242806) (SEQ ID NO. 13, 14 and 15 respectively) and prolabel (PL). The expression construct containing the fusion proteins were used to transducer the HEK cells. Cells were plated in a 384 well-plate and incubated overnight at 37° C./5% CO2 to allow the cells to attach and gro.

[1] = target: T1, CYP 19A amino acids 1-503-PL fusion (Homo sapiens, UniProt P11511); assay: CYP19A-PL fusion stabilization in HEK cells; assay type: cell-based; settings: data not shown
T1 construct: expressed in transfected cells; host or cells: HEK
T1 sequence (P11511 1-503): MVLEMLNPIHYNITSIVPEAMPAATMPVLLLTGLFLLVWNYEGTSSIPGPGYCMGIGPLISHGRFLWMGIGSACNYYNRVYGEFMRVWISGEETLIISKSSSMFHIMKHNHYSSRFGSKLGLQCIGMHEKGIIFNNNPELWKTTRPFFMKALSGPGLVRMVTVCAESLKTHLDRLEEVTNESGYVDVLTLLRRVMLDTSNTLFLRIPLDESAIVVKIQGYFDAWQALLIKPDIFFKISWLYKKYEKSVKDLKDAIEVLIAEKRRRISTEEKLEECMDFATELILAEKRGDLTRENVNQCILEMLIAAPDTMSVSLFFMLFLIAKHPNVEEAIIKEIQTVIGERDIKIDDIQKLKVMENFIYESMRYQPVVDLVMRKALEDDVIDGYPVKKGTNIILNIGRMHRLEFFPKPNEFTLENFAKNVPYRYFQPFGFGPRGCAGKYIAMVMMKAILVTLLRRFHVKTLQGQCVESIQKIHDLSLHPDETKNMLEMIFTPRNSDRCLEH
Description: as §1
Arimidex® anastrazole is available from AstraZeneca and is known to bind to aromatase. YM511 (chemical Name: 4-[[(4-Bromophenyl)methyl]-4H-1,2,4-triazol-4-ylamino]benzonitrile) is also an aromatase inhibitor. CYP19 is also known as aromatase.

BCL-2 / PL-Bax = BCL-2 / PL-Bax (Homo sapiens, UniProt P10415); assay: BCL-2 co-expressed with PL-Bax in U2OS cells, disruption by small molecules (FIG. 7A); assay type: cell-based; settings: for HillSlope / Bottom (best-fit) / Top (best-fit): PL-Bax; for Bottom (best-fit) / Top (best-fit) / effect on BCL-2 stabilization of Bax: U2OS, overnight; for Bottom (best-fit) / Top (best-fit): luminescence
Description: (§2) Interaction of BCL-2 with a peptide test compound (Bim, Bak, and Bax) was studied.
(§3) The native BCL-2 was co-expressed with each of the ProLabel fusions in U2OS cells. Small molecules that are reported to disrupt BCL-2 interactions were then applied to the cells and incubated overnight.
(§4) Cells were transduced with the indicated target PL-fusion and the untagged protein Bcl-2. The cells were treated with the indicated compounds overnight and the remaining target-PL fusion was detected by lysing the cells in the presence of EA and substrate. Luminescence was measured 30 minutes later.

BCL-2 / PL-Bim = BCL-2 / PL-Bim (Homo sapiens, UniProt P10415); assay: BCL-2 co-expressed with PL-Bim in U2OS cells, disruption by small molecules (FIG. 7B); assay type: cell-based; settings: for HillSlope / Bottom (best-fit) / Top (best-fit): PL-Bim; for Bottom (best-fit) / Top (best-fit) / effect on BCL-2/Bim stabilization: U2OS, overnight; for Bottom (best-fit) / Top (best-fit): luminescence
Description: as §2, §3, §4

BCL-2 / PL-Bak = BCL-2 / PL-Bak (Homo sapiens, UniProt P10415); assay: BCL-2 co-expressed with PL-Bak in U2OS cells, disruption by small molecules (FIG. 7C); assay type: cell-based
Description: as §2, §3, §4

BLK (241-494)-PL fusion [2] = target: T2, BLK (241-494)-PL fusion (Homo sapiens, UniProt P51451); assay: Specificity of binding compounds, BLK-PL fusion in U2OS cells (FIG. 9B); assay type: cell-based; set-up: BLK peptide containing amino acids from 241-494 were fused with the PL; expressed in transfected cells
BLK (241-494)-PL fusion [3] = target: T2, BLK (241-494)-PL fusion; assay: BLK-PL fusions of varying sequence length treated with dasatinib, EFC chemiluminescence; assay type: cell-based; set-up: BLK peptide containing amino acids from 241-494 were fused with the PL; expressed in transfected cells; HEK cells are also named; settings: 241-494 fusion compared with the other BLK sequence lengths; 3 hours
Description: A number of fusions were constructed that included varying amounts of the protein sequence centered around the kinase active site as defined by homology to other kinases. E.g. fusion containing protein BLK amino acid numbers 241-494, 246-494, 251-494, 256-494, 261-494 and 266-494 were made.
The expression construct containing the fusion protein was used to transduce the HEK cells. The cells were then incubated in the presence of dasatinib for 3 hours.
BLK-PL fusions were then quantified by adding lysis buffer, EA and chemiluminescent substrate. […] Dasatinib, N-(2-chloro-6-methylphenyl)-2-[[6-[4-(2-hydroxyethyl)-1-piperazinyl]-2-methyl-4-pyrimidinyl]amino]-5-thiazole carboxamide monohydrate, is an oral multi-BCR/ABL and Src family tyrosine kinase inhibitor approved for use in patients with chronic myelogenous leukemia (CML).
Results showing the binding of dasatinib to BLK containing amino acid sequence 241-494 are depicted in FIG. 3. The expression plasmids (e.g. 241-494) indicated in the legend are named to show the amino acid locations of the start and stop of the BLK sequence used. The plasmids were used to transduce parental U2OS cells. The cells were then treated with dasatanib for 3 hrs and the BLK-PL fusions were quantified by adding lysis buffer, EA and chemiluminescent substrate.

G9A(918-1198)-PL = G9A(918-1198)-PL (Homo sapiens, UniProt Q96KQ7); assay: Half-life of G9A catalytic domain-PL fusion in A549 cells after cycloheximide (FIG. 10); assay type: cell-based, humans
Description: Methyltransferases are a group of transferases enzymes involved in DNA methylation. G9a methyltransferase methylates lysine 9 of histone H3 and is present in humans.
The enzyme donor PL fused to the catalytic domain of G9A was expressed in A549 cells, which were plated I a 384-well plate and incubated overnight at 37° C./5% CO2 to allow the cells to attach and grow. […] Both the batches were then treated with cycloheximide to prevent further protein production and the half-life of the fusion protein in both the batches were calculated as shown in FIG. 10. […] UNC0638 is commercially available and is an inhibitor of G9a/GLP methyltransferases. See, e.g. http (colon slash slash) apps.thesgc.org/chemical_probes/UNC0638/#overview, SGC product literature.

[4] = PL-Bak, U2OS, overnight, luminescence

T2 sequence (P51451 241-494): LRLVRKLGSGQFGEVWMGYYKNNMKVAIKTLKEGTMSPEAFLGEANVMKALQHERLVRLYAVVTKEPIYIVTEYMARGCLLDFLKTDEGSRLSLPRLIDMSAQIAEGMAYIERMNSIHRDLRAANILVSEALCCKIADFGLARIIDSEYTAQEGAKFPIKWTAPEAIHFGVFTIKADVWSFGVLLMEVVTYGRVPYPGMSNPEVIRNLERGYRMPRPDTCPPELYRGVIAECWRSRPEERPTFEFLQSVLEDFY
Sequence of BCL-2 / PL-Bim (P10415 whole entry): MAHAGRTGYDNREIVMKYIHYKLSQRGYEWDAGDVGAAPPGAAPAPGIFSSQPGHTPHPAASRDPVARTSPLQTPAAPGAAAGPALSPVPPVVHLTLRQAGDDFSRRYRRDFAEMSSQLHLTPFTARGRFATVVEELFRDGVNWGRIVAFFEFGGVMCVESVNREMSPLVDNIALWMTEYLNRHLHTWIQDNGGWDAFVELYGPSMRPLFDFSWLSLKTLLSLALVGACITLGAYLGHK
Sequence of BCL-2 / PL-Bax (P10415 whole entry): as above
Sequence of BCL-2 / PL-Bak (P10415 whole entry): as above
Sequence of CYP 17A-PL fusion (P05093 with tags, fused parts or gaps): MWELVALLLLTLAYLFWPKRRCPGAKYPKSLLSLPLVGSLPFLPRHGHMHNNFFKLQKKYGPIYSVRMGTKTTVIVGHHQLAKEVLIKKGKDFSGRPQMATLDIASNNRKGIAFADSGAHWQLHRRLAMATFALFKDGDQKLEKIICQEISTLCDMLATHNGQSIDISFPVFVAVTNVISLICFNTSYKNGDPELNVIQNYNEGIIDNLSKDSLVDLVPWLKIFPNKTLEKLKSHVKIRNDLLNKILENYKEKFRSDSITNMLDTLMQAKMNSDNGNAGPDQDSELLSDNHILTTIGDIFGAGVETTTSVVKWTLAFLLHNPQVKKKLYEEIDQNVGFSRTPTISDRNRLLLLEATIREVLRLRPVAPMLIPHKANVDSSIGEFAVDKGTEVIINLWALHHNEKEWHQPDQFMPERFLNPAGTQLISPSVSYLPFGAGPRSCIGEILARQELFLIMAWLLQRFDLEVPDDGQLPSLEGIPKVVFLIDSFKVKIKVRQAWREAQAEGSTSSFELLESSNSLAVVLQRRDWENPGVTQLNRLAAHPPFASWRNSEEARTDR
Sequence of G9A(918-1198)-PL (Q96KQ7 with tags, fused parts or gaps): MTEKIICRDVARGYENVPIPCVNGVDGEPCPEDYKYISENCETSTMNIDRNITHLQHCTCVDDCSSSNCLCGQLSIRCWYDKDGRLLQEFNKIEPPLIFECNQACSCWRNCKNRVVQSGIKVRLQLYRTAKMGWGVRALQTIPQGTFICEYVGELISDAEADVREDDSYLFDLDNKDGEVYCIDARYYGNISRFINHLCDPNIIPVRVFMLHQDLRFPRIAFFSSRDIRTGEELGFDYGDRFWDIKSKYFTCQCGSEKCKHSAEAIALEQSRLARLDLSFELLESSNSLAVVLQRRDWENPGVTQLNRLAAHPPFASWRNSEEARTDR

- HillSlope (CYP 17A-PL fusion): 1083
- stabilization of CYP 17 A domain fusion (CYP 17A-PL fusion; HEK cells, 3-6 hrs): stabilization
- Bottom (best-fit) (CYP 17A-PL fusion; HEK cells, 3-6 hrs at 37° C.): 1.230e+006
- Top (best-fit) (CYP 17A-PL fusion; HEK cells, 3-6 hrs at 37° C.): 2.348e+006
Structure (SMILES): CC(=O)N1CCN(c2ccc(OCC3COC(Cn4ccnc4)(c4ccc(Cl)cc4Cl)O3)cc2)CC1 (stereo not drawn) [Ketoconazole]

- HillSlope (BCL-2 / PL-Bax): −1.216
- Bottom (best-fit) (BCL-2 / PL-Bax): 5900
- Top (best-fit) (BCL-2 / PL-Bax): 31800
- effect on BCL-2 stabilization of Bax (BCL-2 / PL-Bax): somewhat similar effect
- HillSlope (BCL-2 / PL-Bim): −1.635
- Bottom (best-fit) (BCL-2 / PL-Bim): 6740
- Top (best-fit) (BCL-2 / PL-Bim): 136900
- effect on BCL-2/Bim stabilization (BCL-2 / PL-Bim): prevented the stabilizing effect
- HillSlope (BCL-2 / PL-Bak; PL-Bak): −0.4082
- Bottom (best-fit) (BCL-2 / PL-Bak; [4]): −14342
- effect on BCL-2 binding to and stabilization of Bak (BCL-2 / PL-Bak; overnight, U2OS): little effect
Structure (SMILES): CC1(C)CCC(c2ccc(Cl)cc2)=C(CN2CCN(c3ccc(C(=O)NS(=O)(=O)c4ccc(N[C@H](CCN5CCOCC5)CSc5ccccc5)c(S(=O)(=O)C(F)(F)F)c4)cc3)CC2)C1 [ABT-263]

- half-life of fusion protein compared to fusion protein not exposed to the binding partner (G9A(918-1198)-PL; A549 cells, cycloheximide): greater
- percent change in luminescence (G9A(918-1198)-PL; after 100 minutes of cycloheximide, A549 cells pretreated 6 hrs): minimal
Structure (SMILES): COc1cc2c(NC3CCN(C(C)C)CC3)nc(C3CCCCC3)nc2cc1OCCCN1CCCC1 [UNC0638]

- HillSlope (BCL-2 / PL-Bax): −1.485
- Bottom (best-fit) (BCL-2 / PL-Bax): 6973
- Top (best-fit) (BCL-2 / PL-Bax): 31292
- effect on BCL-2 stabilization of Bax (BCL-2 / PL-Bax): somewhat similar effect
- HillSlope (BCL-2 / PL-Bim): −1.898
- Bottom (best-fit) (BCL-2 / PL-Bim): 7774
- Top (best-fit) (BCL-2 / PL-Bim): 139290
- effect on BCL-2/Bim stabilization (BCL-2 / PL-Bim): prevented the stabilizing effect
- HillSlope (BCL-2 / PL-Bak; PL-Bak): −0.5348
- Bottom (best-fit) (BCL-2 / PL-Bak; [4]): 5446
- Top (best-fit) (BCL-2 / PL-Bak; [4]): 11602
- effect on BCL-2 binding to and stabilization of Bak (BCL-2 / PL-Bak; overnight, U2OS): little effect
Structure (SMILES): CN(C)CC[C@H](CSc1ccccc1)Nc1ccc(S(=O)(=O)NC(=O)c2ccc(N3CCN(Cc4ccccc4-c4ccc(Cl)cc4)CC3)cc2)cc1[N+](=O)[O-] [ABT-737]

Continued, molecule first:

Structure (SMILES): Cc1sc2c(c1C)C(c1ccc(Cl)cc1)=N[C@@H](CC(=O)OC(C)(C)C)c1nnc(C)n1-2 [JQ1]
- stability of fusion protein following compound binding (BRD4 (1)-PL fusion): increase in stability

Structure (SMILES): CC(C)(C#N)c1cc(Cn2cncn2)cc(C(C)(C)C#N)c1 [anastrazole]
- stabilization of CYP 19A fusion peptide [1]: stabilized

Structure (SMILES): N#Cc1ccc(N(Cc2ccc(Br)cc2)n2cnnc2)cc1 [YM511, 4-[[(4-Bromophenyl)methyl]-4H-1,2,4-triazol-4-ylamino]benzonitrile]
- stabilization of CYP 19A fusion peptide [1]: stabilized

Structure (SMILES): Cc1nc(Nc2ncc(C(=O)Nc3c(C)cccc3Cl)s2)cc(N2CCN(CCO)CC2)n1.O [dasatinib, N-(2-chloro-6-methylphenyl)-2-[[6-[4-(2-hydroxyethyl)-1-piperazinyl]-2-methyl-4-pyrimidinyl]amino]-5-thiazole carboxamide monohydrate]
- binding specificity (BLK (241-494)-PL fusion [2]; BLK-PL vs MEK-PL fusions): specific for binding to the BLK fusion containing the ATP binding site
- signal (BLK-PL fusion) compared to cells incubated with U0126 and PD035901 (BLK (241-494)-PL fusion [2]; U2OS cells, over a period of time): gain in signal
- affinity of BLK-PL fusion with dasatinib (BLK (241-494)-PL fusion [3]): highest affinity

Structure (SMILES): C[C@]12CC[C@H](O)CC1=CC[C@@H]1[C@@H]2CC[C@]2(C)C(c3cccnc3)=CC[C@@H]12 [Abiraterone]
- EC50 (CYP 17A-PL fusion; stabilization, gain of signal): 0.252 nM
